# Measurements taken from article PMC6120666 (The EMBO Journal, 2018).
# Assays:
# Assay in all cases: Drug affinity chromatography with c-ponatinib and LC-MS/MS (ponatinib interactome)
# Assay type in all cases: binding
# [1] = biological target: T1, proteins of U2OS cell lysate (Homo sapiens, UniProt O00264); settings: PGRMC1, Membrane-associated progesterone receptor component 1
# T1 construct: Proteins enriched by c-ponatinib from U2OS cell lysate; endogenous in cells; host or cells: U2OS cell lysate
# Outline: (§1)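 Proteins were identified by nano-UPLC–MS/MS after elution with formic acid and trypsin digestion. They were captured from U2OS lysate (2 mg protein per pulldown, NP-40 buffer) on amine-coupled NHS beads during a 2 h incubation at 4 °C.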
# [2] = biological target: T2, proteins of U2OS cell lysate (Homo sapiens, UniProt P61247); settings: RPS3A, 40S ribosomal protein S3a
# T2 construct: Proteins enriched by c-ponatinib from U2OS cell lysate; endogenous in cells; host or cells: U2OS cell lysate
# Outline: as §1
# [3] = biological target: T3, proteins of U2OS cell lysate (Homo sapiens, UniProt P29317); settings: EPHA2, Ephrin type-A receptor 2
# T3 construct: Proteins enriched by c-ponatinib from U2OS cell lysate; endogenous in cells; host or cells: U2OS cell lysate
# Outline: as §1
# [4] = biological target: T4, proteins of U2OS cell lysate (Homo sapiens, UniProt Q92973); settings: TNPO1, Transportin-1
# T4 construct: Proteins enriched by c-ponatinib from U2OS cell lysate; endogenous in cells; host or cells: U2OS cell lysate
# Outline: as §1
# [5] = biological target: T5, proteins of U2OS cell lysate (Homo sapiens, UniProt P23284); settings: PPIB, Peptidyl-prolyl cis-trans isomerase B
# T5 construct: Proteins enriched by c-ponatinib from U2OS cell lysate; endogenous in cells; host or cells: U2OS cell lysate
# Outline: as §1
# [6] = biological target: T6, proteins of U2OS cell lysate (Homo sapiens, UniProt P62854); settings: RPS26;RPS26P11, 40S ribosomal protein S26
# T6 construct: Proteins enriched by c-ponatinib from U2OS cell lysate; endogenous in cells; host or cells: U2OS cell lysate
# Outline: as §1
# [7] = biological target: T7, proteins of U2OS cell lysate (Homo sapiens, UniProt Q13268); settings: DHRS2, Dehydrogenase/reductase SDR family member 2, mitochondrial
# T7 construct: Proteins enriched by c-ponatinib from U2OS cell lysate; endogenous in cells; host or cells: U2OS cell lysate
# Outline: as §1
# [8] = biological target: T8, proteins of U2OS cell lysate (Homo sapiens, UniProt P12931); settings: SRC, Proto-oncogene tyrosine-protein kinase Src
# T8 construct: Proteins enriched by c-ponatinib from U2OS cell lysate; endogenous in cells; host or cells: U2OS cell lysate
# Outline: as §1
# [9] = biological target: T9, proteins of U2OS cell lysate (Homo sapiens, UniProt Q15750); settings: TAB1, TGF-beta-activated kinase 1 and MAP3K7-binding protein 1
# T9 construct: Proteins enriched by c-ponatinib from U2OS cell lysate; endogenous in cells; host or cells: U2OS cell lysate
# T9 sequence (Q15750 whole entry): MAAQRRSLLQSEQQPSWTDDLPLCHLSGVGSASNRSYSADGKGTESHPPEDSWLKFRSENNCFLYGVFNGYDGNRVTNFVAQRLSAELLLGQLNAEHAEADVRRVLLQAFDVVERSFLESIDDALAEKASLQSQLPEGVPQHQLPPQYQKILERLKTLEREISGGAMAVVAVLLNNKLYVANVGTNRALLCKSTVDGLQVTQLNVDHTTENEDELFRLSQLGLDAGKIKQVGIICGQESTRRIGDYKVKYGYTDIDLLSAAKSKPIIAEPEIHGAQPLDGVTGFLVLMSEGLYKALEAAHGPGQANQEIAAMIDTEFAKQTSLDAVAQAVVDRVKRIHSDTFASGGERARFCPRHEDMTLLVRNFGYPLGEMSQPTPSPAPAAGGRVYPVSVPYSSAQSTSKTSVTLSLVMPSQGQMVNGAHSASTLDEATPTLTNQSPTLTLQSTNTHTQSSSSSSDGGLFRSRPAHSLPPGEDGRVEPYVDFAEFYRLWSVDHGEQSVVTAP
# Outline: as §1
# [10] = biological target: T10, proteins of U2OS cell lysate (Homo sapiens, UniProt Q7L014); settings: DDX46, Probable ATP-dependent RNA helicase DDX46
# T10 construct: Proteins enriched by c-ponatinib from U2OS cell lysate; endogenous in cells; host or cells: U2OS cell lysate
# T10 sequence (Q7L014 whole entry): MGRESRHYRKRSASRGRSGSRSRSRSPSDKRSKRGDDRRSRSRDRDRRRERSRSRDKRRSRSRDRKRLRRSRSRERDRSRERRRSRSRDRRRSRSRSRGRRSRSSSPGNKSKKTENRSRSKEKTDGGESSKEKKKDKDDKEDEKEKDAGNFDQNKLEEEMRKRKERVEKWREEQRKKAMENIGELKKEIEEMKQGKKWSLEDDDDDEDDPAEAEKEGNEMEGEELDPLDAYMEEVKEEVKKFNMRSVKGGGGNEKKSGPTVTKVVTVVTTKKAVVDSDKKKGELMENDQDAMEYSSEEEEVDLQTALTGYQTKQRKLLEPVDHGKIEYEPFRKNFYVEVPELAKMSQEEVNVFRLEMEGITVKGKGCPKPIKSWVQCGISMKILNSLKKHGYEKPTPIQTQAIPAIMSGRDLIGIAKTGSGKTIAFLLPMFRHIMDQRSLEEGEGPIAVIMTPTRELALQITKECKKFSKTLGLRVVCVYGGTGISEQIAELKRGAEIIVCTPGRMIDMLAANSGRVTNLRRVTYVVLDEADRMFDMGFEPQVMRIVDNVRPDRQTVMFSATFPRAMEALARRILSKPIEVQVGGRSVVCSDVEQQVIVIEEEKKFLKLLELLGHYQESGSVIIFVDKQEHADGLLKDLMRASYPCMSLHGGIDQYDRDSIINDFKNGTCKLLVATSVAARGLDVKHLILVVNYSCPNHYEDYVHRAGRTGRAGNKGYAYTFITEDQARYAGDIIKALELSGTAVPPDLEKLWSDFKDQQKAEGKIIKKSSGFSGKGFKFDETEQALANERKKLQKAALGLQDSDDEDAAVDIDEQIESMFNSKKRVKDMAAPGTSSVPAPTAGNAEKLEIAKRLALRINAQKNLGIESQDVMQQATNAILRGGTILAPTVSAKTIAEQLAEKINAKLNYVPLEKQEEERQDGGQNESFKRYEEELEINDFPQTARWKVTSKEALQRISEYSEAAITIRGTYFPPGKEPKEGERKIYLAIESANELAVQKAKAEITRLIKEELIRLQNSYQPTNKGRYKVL
# Outline: as §1
# [11] = biological target: T11, proteins of U2OS cell lysate (Homo sapiens, UniProt P51610); settings: HCFC1, Host cell factor 1
# T11 construct: Proteins enriched by c-ponatinib from U2OS cell lysate; endogenous in cells; host or cells: U2OS cell lysate
# Outline: as §1
# [12] = biological target: T12, proteins of U2OS cell lysate (Homo sapiens, UniProt P25705); settings: ATP5A1, ATP synthase subunit alpha, mitochondrial
# T12 construct: Proteins enriched by c-ponatinib from U2OS cell lysate; endogenous in cells; host or cells: U2OS cell lysate
# Outline: as §1
# [13] = biological target: T13, proteins of U2OS cell lysate (Homo sapiens, UniProt P49756); settings: RBM25, RNA-binding protein 25
# T13 construct: Proteins enriched by c-ponatinib from U2OS cell lysate; endogenous in cells; host or cells: U2OS cell lysate
# Outline: as §1
# [14] = biological target: T14, proteins of U2OS cell lysate (Homo sapiens, UniProt Q13813); settings: SPTAN1, Spectrin alpha chain, non-erythrocytic 1
# T14 construct: Proteins enriched by c-ponatinib from U2OS cell lysate; endogenous in cells; host or cells: U2OS cell lysate
# T14 sequence (Q13813 whole entry): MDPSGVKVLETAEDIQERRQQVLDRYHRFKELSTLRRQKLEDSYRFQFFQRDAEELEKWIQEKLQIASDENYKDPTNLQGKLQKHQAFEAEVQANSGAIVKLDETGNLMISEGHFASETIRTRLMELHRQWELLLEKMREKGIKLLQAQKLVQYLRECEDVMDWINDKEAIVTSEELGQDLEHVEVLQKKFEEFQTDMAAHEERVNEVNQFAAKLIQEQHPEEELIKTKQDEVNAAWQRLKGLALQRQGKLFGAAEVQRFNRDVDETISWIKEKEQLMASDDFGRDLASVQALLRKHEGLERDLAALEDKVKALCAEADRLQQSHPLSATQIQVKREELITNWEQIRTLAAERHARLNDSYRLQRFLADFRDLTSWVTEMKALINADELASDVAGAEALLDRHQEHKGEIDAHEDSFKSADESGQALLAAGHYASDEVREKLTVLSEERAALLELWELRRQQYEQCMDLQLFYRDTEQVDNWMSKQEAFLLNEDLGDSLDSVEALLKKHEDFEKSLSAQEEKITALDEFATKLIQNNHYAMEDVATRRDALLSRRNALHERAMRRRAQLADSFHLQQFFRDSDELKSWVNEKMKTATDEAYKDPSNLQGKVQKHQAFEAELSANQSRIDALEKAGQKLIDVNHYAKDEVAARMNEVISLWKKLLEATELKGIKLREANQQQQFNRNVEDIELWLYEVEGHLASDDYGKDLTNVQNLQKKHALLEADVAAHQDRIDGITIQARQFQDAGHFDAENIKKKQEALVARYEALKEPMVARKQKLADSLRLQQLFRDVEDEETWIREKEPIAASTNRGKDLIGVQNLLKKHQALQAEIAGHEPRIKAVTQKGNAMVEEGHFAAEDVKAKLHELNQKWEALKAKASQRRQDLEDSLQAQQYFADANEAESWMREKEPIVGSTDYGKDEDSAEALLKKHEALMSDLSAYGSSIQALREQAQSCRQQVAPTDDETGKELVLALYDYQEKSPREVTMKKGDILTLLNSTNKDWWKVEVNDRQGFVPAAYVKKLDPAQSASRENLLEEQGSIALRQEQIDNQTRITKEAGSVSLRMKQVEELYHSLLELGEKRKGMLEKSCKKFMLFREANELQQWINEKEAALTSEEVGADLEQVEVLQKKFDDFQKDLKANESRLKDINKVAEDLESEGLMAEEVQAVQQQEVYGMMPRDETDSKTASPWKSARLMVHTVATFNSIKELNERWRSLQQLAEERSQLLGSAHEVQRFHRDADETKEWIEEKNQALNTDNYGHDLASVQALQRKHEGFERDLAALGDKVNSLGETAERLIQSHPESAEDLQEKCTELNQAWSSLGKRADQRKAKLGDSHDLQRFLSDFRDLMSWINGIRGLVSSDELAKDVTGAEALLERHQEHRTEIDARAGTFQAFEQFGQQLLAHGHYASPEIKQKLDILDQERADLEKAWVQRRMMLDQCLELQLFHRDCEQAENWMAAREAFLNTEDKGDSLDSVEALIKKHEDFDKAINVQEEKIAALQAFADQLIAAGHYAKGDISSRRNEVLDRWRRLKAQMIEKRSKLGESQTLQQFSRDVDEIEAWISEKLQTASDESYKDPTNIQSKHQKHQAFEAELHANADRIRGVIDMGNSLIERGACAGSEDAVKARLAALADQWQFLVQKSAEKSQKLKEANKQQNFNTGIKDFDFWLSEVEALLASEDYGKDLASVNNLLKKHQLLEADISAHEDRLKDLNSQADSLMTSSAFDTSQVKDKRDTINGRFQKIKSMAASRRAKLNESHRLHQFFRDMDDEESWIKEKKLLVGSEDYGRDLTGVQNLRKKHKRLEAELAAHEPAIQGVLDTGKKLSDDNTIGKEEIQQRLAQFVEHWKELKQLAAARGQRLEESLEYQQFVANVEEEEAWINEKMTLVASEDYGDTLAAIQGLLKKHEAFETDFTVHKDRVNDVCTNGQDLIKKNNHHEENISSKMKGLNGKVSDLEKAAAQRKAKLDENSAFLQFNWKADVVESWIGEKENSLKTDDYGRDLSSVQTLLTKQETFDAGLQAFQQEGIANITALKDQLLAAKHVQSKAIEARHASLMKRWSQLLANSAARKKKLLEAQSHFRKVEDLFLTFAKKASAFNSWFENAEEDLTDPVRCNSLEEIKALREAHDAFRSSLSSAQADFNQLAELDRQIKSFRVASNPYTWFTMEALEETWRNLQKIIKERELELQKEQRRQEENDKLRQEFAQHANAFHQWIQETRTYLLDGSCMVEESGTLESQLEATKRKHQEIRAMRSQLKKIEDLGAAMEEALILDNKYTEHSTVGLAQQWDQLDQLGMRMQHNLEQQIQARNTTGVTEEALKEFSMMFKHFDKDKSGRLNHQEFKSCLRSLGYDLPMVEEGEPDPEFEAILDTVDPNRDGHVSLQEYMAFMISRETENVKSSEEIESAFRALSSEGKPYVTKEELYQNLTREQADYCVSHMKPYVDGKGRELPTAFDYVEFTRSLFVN
# Outline: as §1
# [15] = biological target: T15, proteins of U2OS cell lysate (Homo sapiens, UniProt Q6PHR2); settings: ULK3, Serine/threonine-protein kinase ULK3
# T15 construct: Proteins enriched by c-ponatinib from U2OS cell lysate; endogenous in cells; host or cells: U2OS cell lysate
# Outline: as §1
# [16] = biological target: T16, proteins of U2OS cell lysate (Homo sapiens, UniProt P50990); settings: CCT8, T-complex protein 1 subunit theta
# T16 construct: Proteins enriched by c-ponatinib from U2OS cell lysate; endogenous in cells; host or cells: U2OS cell lysate
# Outline: as §1
# [17] = biological target: T17, proteins of U2OS cell lysate (Homo sapiens, UniProt P47897); settings: QARS, Glutamine--tRNA ligase
# T17 construct: Proteins enriched by c-ponatinib from U2OS cell lysate; endogenous in cells; host or cells: U2OS cell lysate
# T17 sequence (P47897 whole entry): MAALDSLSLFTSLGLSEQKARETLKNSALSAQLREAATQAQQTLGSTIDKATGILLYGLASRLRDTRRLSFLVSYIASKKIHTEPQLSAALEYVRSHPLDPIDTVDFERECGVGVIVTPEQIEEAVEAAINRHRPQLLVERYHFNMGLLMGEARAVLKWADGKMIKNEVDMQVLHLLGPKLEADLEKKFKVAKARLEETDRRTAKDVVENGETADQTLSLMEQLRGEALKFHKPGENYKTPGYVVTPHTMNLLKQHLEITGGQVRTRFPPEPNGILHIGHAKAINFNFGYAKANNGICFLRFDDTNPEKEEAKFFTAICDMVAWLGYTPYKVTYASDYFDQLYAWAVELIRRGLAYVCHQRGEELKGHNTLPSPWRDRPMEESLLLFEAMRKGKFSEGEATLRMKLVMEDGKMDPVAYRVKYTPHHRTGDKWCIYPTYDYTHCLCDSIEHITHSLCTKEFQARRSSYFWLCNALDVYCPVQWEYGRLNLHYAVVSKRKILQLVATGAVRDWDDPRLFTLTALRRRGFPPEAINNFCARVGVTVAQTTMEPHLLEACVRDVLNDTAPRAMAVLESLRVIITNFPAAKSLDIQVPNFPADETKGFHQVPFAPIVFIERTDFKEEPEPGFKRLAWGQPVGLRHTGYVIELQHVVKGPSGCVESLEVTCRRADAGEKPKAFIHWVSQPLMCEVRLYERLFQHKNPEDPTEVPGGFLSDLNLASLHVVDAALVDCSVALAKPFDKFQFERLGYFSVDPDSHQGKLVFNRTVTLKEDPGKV
# Outline: as §1
# [18] = biological target: T18, proteins of U2OS cell lysate (Homo sapiens, UniProt P62316); settings: captured protein SNRPD2, Rank 185
# T18 construct: Proteins enriched by c-ponatinib from U2OS cell lysate; endogenous in cells; host or cells: U2OS cell lysate
# Outline: as §1
# [19] = biological target: T19, proteins of U2OS cell lysate (Homo sapiens, UniProt P21796); settings: captured protein VDAC1, Rank 118
# T19 construct: Proteins enriched by c-ponatinib from U2OS cell lysate; endogenous in cells; host or cells: U2OS cell lysate
# T19 sequence (P21796 whole entry): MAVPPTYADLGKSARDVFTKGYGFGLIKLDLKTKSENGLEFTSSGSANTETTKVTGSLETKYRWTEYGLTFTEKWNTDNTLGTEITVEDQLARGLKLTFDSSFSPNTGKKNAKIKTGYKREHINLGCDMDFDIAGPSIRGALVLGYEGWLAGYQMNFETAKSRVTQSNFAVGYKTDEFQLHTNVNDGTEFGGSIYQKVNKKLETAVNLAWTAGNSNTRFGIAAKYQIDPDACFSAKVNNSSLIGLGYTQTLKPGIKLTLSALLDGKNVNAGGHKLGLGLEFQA
# Outline: as §1
SMILES,Average LFQ PON_WT [1],Average LFQ PON_WT [2],Average LFQ PON_WT [3],Average LFQ PON_WT [4],Average LFQ PON_WT [5],Average LFQ PON_WT [6],Average LFQ PON_WT [7],Average LFQ PON_WT [8],Average LFQ PON_WT [9],Average LFQ PON_WT [10],Average LFQ PON_WT [11],Average LFQ PON_WT [12],Average LFQ PON_WT [13],Average LFQ PON_WT [14],Average LFQ PON_WT [15],Average LFQ PON_WT [16],Average LFQ PON_WT [17],Average LFQ intensity [18],Average LFQ intensity [19]
Cc1ccc(C(=O)Nc2ccc(CN3CCN(C)CC3)c(C(F)(F)F)c2)cc1C#Cc1cnc2cccnn12 [PON],23.2724,21.3119,29.5288,24.7772,20.4971,21.6239,24.0178,24.0256,26.3342,21.404,21.0295,26.7182,20.8592,24.813,24.6179,24.1007,19.3053,–,–
"Cc1ccc(C(=O)Nc2ccc(CN3CCN(CCCN)CC3)c(C(F)(F)F)c2)cc1C#Cc1cnc2cccnn12 [c-ponatinib, reference compound]",–,–,–,–,–,–,–,–,–,–,–,–,–,–,–,–,–,22.0908,23.117
